Assays:
Test in all cases: relative viability (nuclei count vs DMSO), 5 days (fraction); higher = more cells survive
Alisertib + Phenformin = compound: COc1cc(Nc2ncc3c(n2)-c2ccc(Cl)cc2C(c2c(F)cccc2OC)=NC3)ccc1C(=O)O [Alisertib] + N=C(N)NC(=N)NCCc1ccccc1 [Phenformin] (partner 250 µM)
Method in brief: (§1)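 After 5 days of treatment, lung cancer cells in 1536-well plates were fixed and stained in a single step (final 0.05% Triton X-100, 1% formaldehyde, 1 ug/ml Hoechst) and their nuclei counted on 4× images. Treatment had been applied by pin tool the day after seeding as one drug alone or as a fixed anchor-drug dose with five library-drug doses (not always all listed) in √10 steps. Relative viability is the nuclei count of treated wells divided by that of vehicle wells, and values are medians of duplicate plates.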

Alisertib + OSI-027 = compound: COc1cc(Nc2ncc3c(n2)-c2ccc(Cl)cc2C(c2c(F)cccc2OC)=NC3)ccc1C(=O)O [Alisertib] + COc1cccc2cc(-c3nc([C@H]4CC[C@H](C(=O)O)CC4)n4ncnc(N)c34)[nH]c12 [OSI-027] (partner 0.5 µM)
Method in brief: as §1

Alisertib + Crizotinib = compound: COc1cc(Nc2ncc3c(n2)-c2ccc(Cl)cc2C(c2c(F)cccc2OC)=NC3)ccc1C(=O)O [Alisertib] + C[C@@H](Oc1cc(-c2cnn(C3CCNCC3)c2)cnc1N)c1c(Cl)ccc(F)c1Cl [Crizotinib] (partner 1 µM)
Method in brief: as §1

Alisertib + Trametinib = compound: COc1cc(Nc2ncc3c(n2)-c2ccc(Cl)cc2C(c2c(F)cccc2OC)=NC3)ccc1C(=O)O [Alisertib] + CC(=O)Nc1cccc(-n2c(=O)n(C3CC3)c(=O)c3c(Nc4ccc(I)cc4F)n(C)c(=O)c(C)c32)c1 [Trametinib] (partner 0.02 µM)
Method in brief: as §1

Cell Line | relative viability (Alisertib + Phenformin; first compound 0.005 µM) | relative viability (Alisertib + Phenformin; first compound 0.01581 µM) | relative viability (Alisertib + Phenformin; first compound 0.05 µM) | relative viability (Alisertib + Phenformin; first compound 0.1581 µM) | relative viability (Alisertib + Phenformin; first compound 0.5 µM) | relative viability (Alisertib + OSI-027; first compound 0.005 µM) | relative viability (Alisertib + OSI-027; first compound 0.01581 µM) | relative viability (Alisertib + OSI-027; first compound 0.05 µM) | relative viability (Alisertib + OSI-027; first compound 0.1581 µM) | relative viability (Alisertib + OSI-027; first compound 0.5 µM) | relative viability (Alisertib + Crizotinib; first compound 0.005 µM) | relative viability (Alisertib + Crizotinib; first compound 0.01581 µM) | relative viability (Alisertib + Crizotinib; first compound 0.05 µM) | relative viability (Alisertib + Crizotinib; first compound 0.1581 µM) | relative viability (Alisertib + Crizotinib; first compound 0.5 µM) | relative viability (Alisertib + Trametinib; first compound 0.005 µM) | relative viability (Alisertib + Trametinib; first compound 0.01581 µM) | relative viability (Alisertib + Trametinib; first compound 0.05 µM) | relative viability (Alisertib + Trametinib; first compound 0.1581 µM) | relative viability (Alisertib + Trametinib; first compound 0.5 µM)
201T | 0.38 | 0.435 | 0.441 | 0.238 | 0.256 | 0.712 | 0.762 | 0.632 | 0.249 | 0.126 | 0.982 | 0.992 | 0.938 | 0.809 | 0.418 | 0.732 | 0.707 | 0.707 | 0.679 | 0.278
A-427 | 0.298 | 0.187 | 0.117 | 0.132 | 0.121 | 0.406 | 0.291 | 0.13 | 0.162 | 0.133 | 0.903 | 0.839 | 0.136 | 0.146 | 0.174 | 0.596 | 0.57 | 0.244 | 0.241 | 0.262
ABC-1 | 0.269 | 0.225 | 0.185 | 0.218 | 0.195 | 0.42 | 0.375 | 0.339 | 0.195 | 0.185 | 1.1 | 0.551 | 0.363 | 0.318 | 0.23 |  |  |  |  | 
BEN | 0.283 | 0.299 | 0.233 | 0.207 | 0.184 | 0.296 | 0.265 | 0.24 | 0.217 | 0.158 | 0.868 | 0.838 | 0.238 | 0.213 | 0.237 | 1.02 | 0.976 | 0.435 | 0.286 | 0.409
CAL-12T | 0.434 | 0.253 | 0.15 | 0.142 | 0.169 | 0.488 | 0.277 | 0.137 | 0.165 | 0.118 | 0.613 | 0.232 | 0.142 | 0.166 | 0.109 | 0.321 | 0.261 | 0.155 | 0.154 | 0.227
COR-L23 | 0.351 | 0.388 | 0.243 | 0.137 | 0.109 | 0.739 | 0.661 | 0.517 | 0.133 | 0.13 | 0.571 | 0.48 | 0.17 | 0.151 | 0.102 | 0.609 | 0.427 | 0.221 | 0.133 | 0.125
COR-L 105 | 0.454 | 0.493 | 0.335 | 0.234 | 0.246 | 0.59 | 0.66 | 0.546 | 0.248 | 0.267 | 0.857 | 0.587 | 0.621 | 0.523 | 0.251 | 0.4 | 0.407 | 0.369 | 0.325 | 0.281
Calu-6 |  |  |  |  |  |  |  |  |  |  | 0.697 | 0.334 | 0.204 | 0.227 | 0.198 |  |  |  |  | 
ChaGo-K-1 | 0.426 | 0.382 | 0.418 | 0.151 | 0.139 | 0.423 | 0.537 | 0.349 | 0.138 | 0.15 | 1.08 | 0.849 | 0.366 | 0.344 | 0.317 | 0.772 | 0.795 | 0.213 | 0.191 | 0.159
EKVX | 0.209 | 0.209 | 0.135 | 0.129 | 0.131 | 0.654 | 0.631 | 0.251 | 0.158 | 0.136 | 0.796 | 0.807 | 0.313 | 0.182 | 0.219 | 0.319 | 0.37 | 0.18 | 0.16 | 0.155
EMC-BAC-2 | 0.389 | 0.343 | 0.27 | 0.245 | 0.197 | 0.334 | 0.29 | 0.231 | 0.217 | 0.178 | 0.683 | 0.382 | 0.25 | 0.225 | 0.148 | 0.839 | 0.681 | 0.439 | 0.347 | 0.304
EPLC-272H | 0.251 | 0.238 | 0.284 | 0.101 | 0.12 | 0.275 | 0.282 | 0.256 | 0.131 | 0.124 | 0.931 | 0.851 | 0.739 | 0.201 | 0.113 | 0.258 | 0.278 | 0.275 | 0.179 | 0.158
H3255 | 0.329 | 0.338 | 0.313 | 0.299 | 0.294 | 0.589 | 0.575 | 0.444 | 0.269 | 0.271 | 0.909 | 0.765 | 0.662 | 0.205 | 0.174 | 0.662 | 0.637 | 0.441 | 0.309 | 0.295
HARA | 0.398 | 0.469 | 0.358 | 0.187 | 0.133 | 0.409 | 0.423 | 0.369 | 0.113 | 0.0564 | 1.05 | 0.796 | 0.277 | 0.169 | 0.135 | 0.722 | 0.769 | 0.348 | 0.12 | 0.207
HCC-15 | 0.401 | 0.313 | 0.178 | 0.108 | 0.1 | 0.578 | 0.504 | 0.227 | 0.118 | 0.12 | 0.808 | 0.655 | 0.219 | 0.115 | 0.0945 | 0.356 | 0.286 | 0.175 | 0.122 | 0.113
HCC-44 | 0.146 | 0.193 | 0.134 | 0.0875 | 0.0665 | 0.465 | 0.313 | 0.368 | 0.166 | 0.186 | 0.872 | 0.769 | 0.388 | 0.219 | 0.176 | 0.963 | 0.931 | 0.509 | 0.4 | 0.32
HCC-78 | 0.61 | 0.541 | 0.321 | 0.281 | 0.26 | 0.536 | 0.354 | 0.244 | 0.244 | 0.241 | 0.358 | 0.291 | 0.205 | 0.153 | 0.205 | 0.67 | 0.646 | 0.263 | 0.236 | 0.259

Source: the supplement of paper PMC10307832
